Experimental data: ChEMBL document CHEMBL4477252, “Optimization of microtubule affinity regulating kinase (MARK) inhibitors with improved physical properties” (Bioorg Med Chem Lett, 2016)

How the values were obtained:
[1] = target: CDK9/cyclin T1 (Homo sapiens, UniProt P50750); experiment: Inhibition of full-length recombinant human His-tagged CDK9/cyclin T1 expressed in baculovirus expression system by Adapta assay
[2] = target: Cyclin-dependent kinase 5/CDK5 activator 1 (Homo sapiens, UniProt Q00535); experiment: Inhibition of full-length recombinant human GST and His-tagged CDK5/P25 expressed in baculovirus expression system by Z'-LYTE assay
[3] = target: T1, Calcium/calmodulin-dependent protein kinase type IV (Homo sapiens, UniProt Q16566); experiment: Inhibition of full-length recombinant human GST-tagged CAMK4 expressed in Escherichia coli by Z'-LYTE assay
T1 sequence (Q16566 whole entry): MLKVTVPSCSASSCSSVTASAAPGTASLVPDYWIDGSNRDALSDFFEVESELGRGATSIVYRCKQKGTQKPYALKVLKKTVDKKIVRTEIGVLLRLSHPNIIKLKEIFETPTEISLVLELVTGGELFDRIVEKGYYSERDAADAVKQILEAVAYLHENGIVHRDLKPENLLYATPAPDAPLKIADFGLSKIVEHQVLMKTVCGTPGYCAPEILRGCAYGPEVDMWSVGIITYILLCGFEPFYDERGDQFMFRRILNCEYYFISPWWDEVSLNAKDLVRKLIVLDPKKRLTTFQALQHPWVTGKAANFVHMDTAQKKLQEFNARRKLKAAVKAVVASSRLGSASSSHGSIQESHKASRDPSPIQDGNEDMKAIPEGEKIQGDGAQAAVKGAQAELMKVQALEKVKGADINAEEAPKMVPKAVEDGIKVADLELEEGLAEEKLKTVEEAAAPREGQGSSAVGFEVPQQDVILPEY

[4] = target: Insulin-like growth factor 1 receptor (Homo sapiens, UniProt P08069); experiment: Inhibition of recombinant human C-terminal His-tagged cytoplasmic IGF1R (960 to 1397 residues) expressed in baculovirus expression system by Z'-LYTE assay
[5] = target: T2, Tyrosine-protein kinase JAK3 (Homo sapiens, UniProt P52333); experiment: Inhibition of recombinant human GST-tagged JAK3 catalytic domain expressed in baculovirus expression system by Z'-LYTE assay
T2 sequence (P52333 whole entry): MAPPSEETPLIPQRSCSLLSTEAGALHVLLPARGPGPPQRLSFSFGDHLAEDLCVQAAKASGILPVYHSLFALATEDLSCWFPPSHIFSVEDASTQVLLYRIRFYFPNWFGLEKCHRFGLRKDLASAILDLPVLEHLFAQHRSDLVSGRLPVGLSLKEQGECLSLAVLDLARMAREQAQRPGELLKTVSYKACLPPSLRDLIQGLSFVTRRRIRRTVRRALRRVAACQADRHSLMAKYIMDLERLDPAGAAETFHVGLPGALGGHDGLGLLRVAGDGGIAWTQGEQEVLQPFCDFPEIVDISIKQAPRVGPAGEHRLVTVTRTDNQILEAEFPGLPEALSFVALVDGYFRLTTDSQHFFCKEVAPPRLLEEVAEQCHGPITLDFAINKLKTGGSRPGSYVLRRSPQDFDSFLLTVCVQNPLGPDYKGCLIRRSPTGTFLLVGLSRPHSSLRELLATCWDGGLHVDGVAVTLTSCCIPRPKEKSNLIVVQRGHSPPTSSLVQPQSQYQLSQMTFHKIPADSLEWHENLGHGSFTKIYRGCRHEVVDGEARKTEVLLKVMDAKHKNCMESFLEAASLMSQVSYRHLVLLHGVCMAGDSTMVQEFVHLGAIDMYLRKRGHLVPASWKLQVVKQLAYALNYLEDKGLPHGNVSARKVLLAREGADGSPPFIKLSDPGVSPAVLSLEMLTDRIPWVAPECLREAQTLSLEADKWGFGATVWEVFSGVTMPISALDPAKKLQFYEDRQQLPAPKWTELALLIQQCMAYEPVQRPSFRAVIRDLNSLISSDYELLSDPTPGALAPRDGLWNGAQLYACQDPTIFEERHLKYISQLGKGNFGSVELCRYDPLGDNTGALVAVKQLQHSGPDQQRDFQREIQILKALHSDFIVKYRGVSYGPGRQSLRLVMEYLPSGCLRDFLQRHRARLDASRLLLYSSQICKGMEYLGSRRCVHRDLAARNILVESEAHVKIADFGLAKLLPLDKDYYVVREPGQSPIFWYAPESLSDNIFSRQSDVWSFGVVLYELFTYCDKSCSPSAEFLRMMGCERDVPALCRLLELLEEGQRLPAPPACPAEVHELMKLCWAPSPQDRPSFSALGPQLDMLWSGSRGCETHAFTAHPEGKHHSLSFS

[6] = target: AMP-activated protein kinase (AMPK) alpha-1/beta-1/gamma-1 (Homo sapiens, UniProt P54619+Q13131+Q9Y478); experiment: Inhibition of full-length recombinant human GST and His-tagged AMPK alpha1/beta1/gamma1 expressed in baculovirus expression system by LanthaScreen assay
[7] = Clearance in Sprague-Dawley rat at 1 mL/kg, iv administered through catheter measured after 24 hrs by LC-MS/MS analysis; assay type: ADME, organism-based; settings: in vivo
[8] = target: Receptor tyrosine-protein kinase erbB-2 (Homo sapiens, UniProt P04626); experiment: Inhibition of recombinant human His-tagged cytoplasmic ERBB2 expressed in baculovirus expression system by Z'-LYTE assay
[9] = target: T3, Mitogen-activated protein kinase 13 (Homo sapiens, UniProt O15264); experiment: Inhibition of full-length recombinant human His-tagged MAPK13 expressed in baculovirus expression system by Z'-LYTE assay
T3 sequence (O15264 whole entry): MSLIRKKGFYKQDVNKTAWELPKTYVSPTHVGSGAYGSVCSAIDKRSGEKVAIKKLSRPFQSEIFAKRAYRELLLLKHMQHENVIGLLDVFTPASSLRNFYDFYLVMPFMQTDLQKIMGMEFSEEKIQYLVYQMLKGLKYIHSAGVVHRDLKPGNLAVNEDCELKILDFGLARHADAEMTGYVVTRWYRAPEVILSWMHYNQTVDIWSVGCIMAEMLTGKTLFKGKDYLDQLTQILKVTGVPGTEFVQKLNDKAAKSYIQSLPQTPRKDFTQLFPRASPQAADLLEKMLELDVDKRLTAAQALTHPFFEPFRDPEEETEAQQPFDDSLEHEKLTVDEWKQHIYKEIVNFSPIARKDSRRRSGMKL

Chain of Cyclin-dependent kinase 5/CDK5 activator 1 (Q00535 whole entry): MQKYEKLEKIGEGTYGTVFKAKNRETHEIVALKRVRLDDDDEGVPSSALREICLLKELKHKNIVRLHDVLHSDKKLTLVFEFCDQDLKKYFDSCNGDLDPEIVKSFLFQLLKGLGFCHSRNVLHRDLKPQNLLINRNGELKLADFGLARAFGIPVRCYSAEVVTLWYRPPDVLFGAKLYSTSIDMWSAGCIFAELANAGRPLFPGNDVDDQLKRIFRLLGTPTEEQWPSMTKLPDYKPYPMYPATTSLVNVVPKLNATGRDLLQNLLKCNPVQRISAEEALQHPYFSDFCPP
Chain of Cyclin-dependent kinase 5/CDK5 activator 1 (Q15078 whole entry, further chain): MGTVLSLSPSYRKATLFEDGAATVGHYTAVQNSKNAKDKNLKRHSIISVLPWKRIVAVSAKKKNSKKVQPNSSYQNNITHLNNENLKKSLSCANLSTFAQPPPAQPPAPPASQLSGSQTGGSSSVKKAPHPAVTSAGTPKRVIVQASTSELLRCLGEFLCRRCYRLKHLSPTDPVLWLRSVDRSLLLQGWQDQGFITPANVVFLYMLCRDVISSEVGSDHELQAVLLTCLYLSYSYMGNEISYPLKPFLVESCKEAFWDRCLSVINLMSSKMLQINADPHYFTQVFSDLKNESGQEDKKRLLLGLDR
Chain of CDK9/cyclin T1 (O60563 whole entry): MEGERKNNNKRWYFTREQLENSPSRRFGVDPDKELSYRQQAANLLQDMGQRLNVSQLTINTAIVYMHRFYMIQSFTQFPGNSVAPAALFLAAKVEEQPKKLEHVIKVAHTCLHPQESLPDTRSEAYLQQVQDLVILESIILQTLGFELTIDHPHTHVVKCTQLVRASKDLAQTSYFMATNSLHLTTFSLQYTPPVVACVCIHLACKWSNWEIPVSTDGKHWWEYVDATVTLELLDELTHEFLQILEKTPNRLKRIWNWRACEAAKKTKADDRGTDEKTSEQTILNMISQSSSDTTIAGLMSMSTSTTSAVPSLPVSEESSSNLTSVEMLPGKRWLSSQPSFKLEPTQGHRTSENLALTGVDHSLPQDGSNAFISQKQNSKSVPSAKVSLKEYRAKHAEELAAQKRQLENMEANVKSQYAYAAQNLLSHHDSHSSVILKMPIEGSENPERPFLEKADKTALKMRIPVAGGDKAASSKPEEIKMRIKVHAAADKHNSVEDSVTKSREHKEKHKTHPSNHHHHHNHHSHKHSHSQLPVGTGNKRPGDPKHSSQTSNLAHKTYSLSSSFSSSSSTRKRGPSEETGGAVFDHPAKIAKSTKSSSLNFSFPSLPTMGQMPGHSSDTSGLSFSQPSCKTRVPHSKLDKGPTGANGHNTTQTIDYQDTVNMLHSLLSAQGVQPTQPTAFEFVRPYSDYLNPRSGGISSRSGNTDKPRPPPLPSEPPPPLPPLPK
Chain of CDK9/cyclin T1 (P50750 whole entry): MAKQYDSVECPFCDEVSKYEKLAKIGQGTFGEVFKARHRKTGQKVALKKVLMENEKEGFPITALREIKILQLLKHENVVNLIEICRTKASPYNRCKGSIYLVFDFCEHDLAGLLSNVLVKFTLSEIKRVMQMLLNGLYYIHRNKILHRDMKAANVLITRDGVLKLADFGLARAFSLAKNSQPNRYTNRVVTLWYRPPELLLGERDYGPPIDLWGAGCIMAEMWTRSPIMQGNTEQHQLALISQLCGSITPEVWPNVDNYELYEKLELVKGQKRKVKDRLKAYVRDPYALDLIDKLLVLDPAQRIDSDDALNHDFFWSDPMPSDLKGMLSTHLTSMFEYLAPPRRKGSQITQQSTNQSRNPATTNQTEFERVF
Chain of Insulin-like growth factor 1 receptor (P08069 31-736 limits assumed): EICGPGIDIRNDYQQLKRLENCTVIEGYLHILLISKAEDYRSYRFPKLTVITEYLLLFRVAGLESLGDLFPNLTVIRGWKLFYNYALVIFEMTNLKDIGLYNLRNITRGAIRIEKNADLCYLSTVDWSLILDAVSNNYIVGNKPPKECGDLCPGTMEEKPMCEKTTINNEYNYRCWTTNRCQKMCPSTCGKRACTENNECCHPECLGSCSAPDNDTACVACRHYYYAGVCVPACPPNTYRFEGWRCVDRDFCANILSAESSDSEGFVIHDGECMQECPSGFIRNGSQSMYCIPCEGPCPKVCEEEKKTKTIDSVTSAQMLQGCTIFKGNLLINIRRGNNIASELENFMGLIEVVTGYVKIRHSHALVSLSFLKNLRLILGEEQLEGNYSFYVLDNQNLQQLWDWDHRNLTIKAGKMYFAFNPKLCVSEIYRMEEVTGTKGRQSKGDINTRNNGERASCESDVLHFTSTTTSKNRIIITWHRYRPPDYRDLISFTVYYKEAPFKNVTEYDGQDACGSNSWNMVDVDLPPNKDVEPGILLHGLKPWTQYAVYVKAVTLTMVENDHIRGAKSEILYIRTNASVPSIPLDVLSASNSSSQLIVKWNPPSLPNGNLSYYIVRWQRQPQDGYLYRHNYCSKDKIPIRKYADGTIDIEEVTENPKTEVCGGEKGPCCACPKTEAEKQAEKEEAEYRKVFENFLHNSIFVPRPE
Chain of Insulin-like growth factor 1 receptor (P08069 741-1367 limits assumed): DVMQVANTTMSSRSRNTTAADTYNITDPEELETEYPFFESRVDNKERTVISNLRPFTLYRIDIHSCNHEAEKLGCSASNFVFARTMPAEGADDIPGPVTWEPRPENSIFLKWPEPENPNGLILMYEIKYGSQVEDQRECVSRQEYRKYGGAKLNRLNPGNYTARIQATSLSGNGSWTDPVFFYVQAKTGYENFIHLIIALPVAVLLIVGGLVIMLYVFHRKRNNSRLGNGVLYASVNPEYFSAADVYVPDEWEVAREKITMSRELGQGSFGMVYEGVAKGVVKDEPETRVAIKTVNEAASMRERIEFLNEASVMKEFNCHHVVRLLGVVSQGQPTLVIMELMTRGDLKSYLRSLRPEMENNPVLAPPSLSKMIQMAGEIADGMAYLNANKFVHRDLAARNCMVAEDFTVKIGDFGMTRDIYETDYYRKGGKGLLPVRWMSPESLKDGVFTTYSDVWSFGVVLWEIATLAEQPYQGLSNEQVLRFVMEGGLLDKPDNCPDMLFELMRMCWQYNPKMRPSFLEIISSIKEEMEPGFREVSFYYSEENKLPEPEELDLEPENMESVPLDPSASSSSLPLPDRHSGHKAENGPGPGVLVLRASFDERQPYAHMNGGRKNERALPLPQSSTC
Chain of Receptor tyrosine-protein kinase erbB-2 (P04626 whole entry): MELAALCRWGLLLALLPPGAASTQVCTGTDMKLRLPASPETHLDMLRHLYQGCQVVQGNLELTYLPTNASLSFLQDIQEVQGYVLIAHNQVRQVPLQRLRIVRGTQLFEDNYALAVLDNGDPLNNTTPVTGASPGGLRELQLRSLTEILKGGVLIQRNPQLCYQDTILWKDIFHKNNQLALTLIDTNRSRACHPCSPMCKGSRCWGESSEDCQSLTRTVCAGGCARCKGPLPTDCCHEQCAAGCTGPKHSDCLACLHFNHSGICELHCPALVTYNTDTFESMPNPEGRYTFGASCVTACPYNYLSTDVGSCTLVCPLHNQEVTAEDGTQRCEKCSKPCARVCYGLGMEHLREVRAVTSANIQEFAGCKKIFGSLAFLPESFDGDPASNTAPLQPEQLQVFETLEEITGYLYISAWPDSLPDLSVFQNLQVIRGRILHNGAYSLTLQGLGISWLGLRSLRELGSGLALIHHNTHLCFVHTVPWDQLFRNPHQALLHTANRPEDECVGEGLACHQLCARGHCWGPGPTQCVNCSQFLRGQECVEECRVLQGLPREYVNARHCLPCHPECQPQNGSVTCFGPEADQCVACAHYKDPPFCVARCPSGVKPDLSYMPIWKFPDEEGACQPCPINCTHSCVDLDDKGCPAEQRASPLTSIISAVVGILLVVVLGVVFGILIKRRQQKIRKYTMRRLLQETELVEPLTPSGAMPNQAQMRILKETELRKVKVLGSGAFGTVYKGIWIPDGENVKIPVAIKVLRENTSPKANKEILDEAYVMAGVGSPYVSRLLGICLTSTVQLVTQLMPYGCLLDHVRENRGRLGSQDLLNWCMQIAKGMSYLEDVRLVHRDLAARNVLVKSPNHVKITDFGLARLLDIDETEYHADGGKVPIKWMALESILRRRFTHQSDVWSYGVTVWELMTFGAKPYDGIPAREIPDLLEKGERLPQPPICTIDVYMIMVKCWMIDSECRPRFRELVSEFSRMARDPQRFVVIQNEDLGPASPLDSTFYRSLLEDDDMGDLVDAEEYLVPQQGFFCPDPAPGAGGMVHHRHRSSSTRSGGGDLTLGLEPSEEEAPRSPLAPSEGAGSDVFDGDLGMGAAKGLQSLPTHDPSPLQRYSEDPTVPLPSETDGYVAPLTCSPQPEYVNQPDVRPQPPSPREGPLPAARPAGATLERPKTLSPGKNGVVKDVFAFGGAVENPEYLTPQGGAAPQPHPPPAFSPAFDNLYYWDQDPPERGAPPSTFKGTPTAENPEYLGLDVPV

SMILES	IC50 [1] [nM]	IC50 [2] [nM]	IC50 [3] [nM]	IC50 [4] [nM]	IC50 [5] [nM]	IC50 [6] [nM]	clearance [7] [mL/min/kg]	IC50 [8] [nM]	IC50 [9] [nM]
O=C(NCC(F)(F)F)c1cc(-c2cnn3cc(-c4ccc(OCCN5CCCCC5)cc4)cnc23)cs1	45	19	55000	> 100000	280	< 10	32	35000	13000
Cn1cc(-c2cnc3c(-c4csc(C(=O)NCC(F)(F)F)c4)cnn3c2)cn1	35	< 10	> 100000	> 100000	430	26	7.4	> 100000	2200
Cn1cc(-c2cnc3c(-c4csc(C(=O)N[C@@H]5CCCC[C@@H]5N)c4)cnn3c2)cn1 (racemic)	12	4.4	> 10000	2800	33	4.6		1000	39
Cc1sc(C(=O)N[C@@H]2[C@H](N)CCCC2(F)F)cc1-c1cnn2cc(Cl)cnc12	240	61	29000	> 100000	1300	53	19	> 100000	160
